Experimental data as given in patent US7338950B2, “Amide compounds as ion channel ligands and uses thereof” (Renovis, Inc., priority 2003, dated 2008).

What follows are compounds tested on VR1 receptor (293 cells expressing capsaicin-insensitive VR1 receptor variants) (assay: High throughput screening of VR1 antagonists using a calcium imaging assay (Fura2, pH 5.1 stimulus)). Settings: 1 uM compound; inhibition of calcium ion influx.
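Further: Fura2 ratiometric fluorescence read every 4 s over 3 min, response taken as peak ratio minus baseline before pre-treatment, compound pre-treatment preceding acid challenge.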

Row | SMILES | % Inhibition @ 1 uM
1 | O=C(Nc1ccc2ncccc2c1)c1ccc(-c2ncccc2Cl)cn1 [Compound 1344] | + (compound exhibited 0-25% inhibition of calcium ion influx induced by capsaicin stimulation)
2 | CC(C)Oc1cccc(NC(=O)c2ccc(-c3ncccc3Cl)c(F)c2)c1 [Compound 1194] | + (compound exhibited 0-25% inhibition of calcium ion influx induced by capsaicin stimulation)
3 | COc1cc(C(=O)Nc2cccc(OC(F)(F)F)c2)ccc1-c1ncccc1Cl [Compound 1269] | + (compound exhibited 0-25% inhibition of calcium ion influx induced by capsaicin stimulation)
4 | O=C(Nc1cccc(OC(F)(F)F)c1)c1ccc(-c2ncccc2Cl)cc1 [Compound 1294] | + (compound exhibited 0-25% inhibition of calcium ion influx induced by capsaicin stimulation)
5 | O=C(Nc1cc[nH]n1)c1ccc(-c2ncccc2Cl)cc1 [Compound 1026] | + (compound exhibited 0-25% inhibition of calcium ion influx induced by capsaicin stimulation)
6 | O=C(Nc1ccc(C(F)(F)F)cc1)c1ccc(-c2ncccc2Cl)c(F)c1 [Compound 1152] | ++ (compound exhibited 25-50% inhibition of calcium ion influx induced by capsaicin stimulation)
7 | O=C(Nc1ccc2[nH]ccc2c1)c1ccc(-c2ncccc2Cl)cc1 [Compound 1021] | ++++ (compound exhibited 75% or greater inhibition of calcium ion influx induced by capsaicin stimulation)
8 | CCOC(=O)c1ccc(NC(=O)c2ccc(-c3ncccc3Cl)cn2)cc1 [Compound 1350] | + (compound exhibited 0-25% inhibition of calcium ion influx induced by capsaicin stimulation)
9 | O=C(Nc1ccc2ccccc2c1)c1ccc(-c2ncccc2Cl)c(F)c1 [Compound 1177] | ++++ (compound exhibited 75% or greater inhibition of calcium ion influx induced by capsaicin stimulation)
10 | CCCOc1ccc(NC(=O)c2ccc(-c3ncccc3Cl)c(F)c2)cc1 [Compound 1190] | ++ (compound exhibited 25-50% inhibition of calcium ion influx induced by capsaicin stimulation)
11 | Cc1ccnc(NC(=O)c2ccc(-c3ncccc3Cl)c(F)c2)c1 [Compound 1162] | ++++ (compound exhibited 75% or greater inhibition of calcium ion influx induced by capsaicin stimulation)
12 | N#Cc1ccccc1NC(=O)c1ccc(-c2ncccc2Cl)cc1 [Compound 1028] | + (compound exhibited 0-25% inhibition of calcium ion influx induced by capsaicin stimulation)
13 | O=C(Nc1ccc2ncccc2c1)c1ccc(-c2ncccc2Cl)cc1F [Compound 1124] | ++ (compound exhibited 25-50% inhibition of calcium ion influx induced by capsaicin stimulation)
14 | COc1cc(C(=O)Nc2ccc(C#N)c(Cl)c2)ccc1-c1ncccc1Cl [Compound 1265] | ++++ (compound exhibited 75% or greater inhibition of calcium ion influx induced by capsaicin stimulation)
15 | N#Cc1cccc(NC(=O)c2ccc(-c3ncccc3Cl)cc2F)c1 [Compound 1101] | ++++ (compound exhibited 75% or greater inhibition of calcium ion influx induced by capsaicin stimulation)
16 | COc1ccc(NC(=O)c2ccc(-c3ncccc3Cl)cc2)cc1Cl [Compound 1034] | + (compound exhibited 0-25% inhibition of calcium ion influx induced by capsaicin stimulation)
17 | O=C(Nc1ccc2ccccc2c1)c1ccc(-c2ncccc2Cl)cc1F [Compound 1126] | ++ (compound exhibited 25-50% inhibition of calcium ion influx induced by capsaicin stimulation)
18 | CCOc1ccc(NC(=O)c2ccc(-c3ncccc3Cl)c(OC)c2)cc1 [Compound 1273] | + (compound exhibited 0-25% inhibition of calcium ion influx induced by capsaicin stimulation)
19 | COc1cccc(NC(=O)c2ccc(-c3ncccc3Cl)cc2F)c1 [Compound 1091] | + (compound exhibited 0-25% inhibition of calcium ion influx induced by capsaicin stimulation)

Row | SMILES | % Inhibition @ 1 uM
20 | N#Cc1cccc(NC(=O)c2ccc(-c3ncccc3Cl)cc2)c1 [Compound 1039] | + (compound exhibited 0-25% inhibition of calcium ion influx induced by capsaicin stimulation)
21 | O=C(Nc1ccc(OCc2ccccc2)cc1)c1ccc(-c2ncccc2Cl)cn1 [Compound 1349] | + (compound exhibited 0-25% inhibition of calcium ion influx induced by capsaicin stimulation)
22 | COc1cc(C(=O)NC(C)(C)C)ccc1-c1ncccc1Cl [Compound 1204] | + (compound exhibited 0-25% inhibition of calcium ion influx induced by capsaicin stimulation)
23 | O=C(Nc1cccc(Br)c1)c1ccc(-c2ncccc2Cl)cc1F [Compound 1100] | ++++ (compound exhibited 75% or greater inhibition of calcium ion influx induced by capsaicin stimulation)
24 | O=C(Nc1ccc(C(F)(F)F)cn1)c1ccc(-c2ncccc2Cl)cc1F [Compound 1114] | + (compound exhibited 0-25% inhibition of calcium ion influx induced by capsaicin stimulation)
25 | O=C(Nc1cccc(Cl)c1)c1ccc(-c2ncccc2Cl)c(F)c1 [Compound 1133] | + (compound exhibited 0-25% inhibition of calcium ion influx induced by capsaicin stimulation)
26 | COc1cc(C(=O)Nc2ccccc2C#N)ccc1-c1ncccc1Cl [Compound 1209] | + (compound exhibited 0-25% inhibition of calcium ion influx induced by capsaicin stimulation)
27 | COc1ccccc1NC(=O)c1ccc(-c2ncccc2Cl)cc1 [Compound 1030] | ++++ (compound exhibited 75% or greater inhibition of calcium ion influx induced by capsaicin stimulation)
28 | O=C(Nc1ccc(Br)cn1)c1ccc(-c2ncccc2Cl)cc1 [Compound 1066] | ++ (compound exhibited 25-50% inhibition of calcium ion influx induced by capsaicin stimulation)
29 | COc1cc(C(=O)Nc2ccc(N3CCOCC3)c(Cl)c2)ccc1-c1ncccc1Cl [Compound 1276] | + (compound exhibited 0-25% inhibition of calcium ion influx induced by capsaicin stimulation)
30 | O=C(Nc1ccccc1Cl)c1ccc(-c2ncccc2Cl)cn1 [Compound 1314] | ++++ (compound exhibited 75% or greater inhibition of calcium ion influx induced by capsaicin stimulation)
31 | COc1cccc(NC(=O)c2ccc(-c3ncccc3Cl)c(OC)c2)c1 [Compound 1213] | ++ (compound exhibited 25-50% inhibition of calcium ion influx induced by capsaicin stimulation)
32 | O=C(Nc1ccncn1)c1ccc(-c2ncccc2Cl)cn1 [Compound 1336] | ++++ (compound exhibited 75% or greater inhibition of calcium ion influx induced by capsaicin stimulation)
33 | CCCOc1ccc(NC(=O)c2ccc(-c3ncccc3Cl)cc2)cc1 [Compound 1291] | + (compound exhibited 0-25% inhibition of calcium ion influx induced by capsaicin stimulation)
34 | CC(C)(C)c1ccc(NC(=O)c2ccc(-c3ncccc3Cl)cc2)cc1 [Compound 1041] | ++++ (compound exhibited 75% or greater inhibition of calcium ion influx induced by capsaicin stimulation)
35 | O=C(Nc1ccc(C(F)(F)F)cc1)c1ccc(-c2ncccc2Cl)cc1 [Compound 1035] | ++++ (compound exhibited 75% or greater inhibition of calcium ion influx induced by capsaicin stimulation)
36 | O=C(Nc1ccc2c(c1)Cc1ccccc1-2)c1ccc(-c2ncccc2Cl)cc1 [Compound 1053] | ++ (compound exhibited 25-50% inhibition of calcium ion influx induced by capsaicin stimulation)
37 | O=C(Nc1ccc(N2CCOCC2)c(Cl)c1)c1ccc(-c2ncccc2Cl)cc1 [Compound 1301] | +++ (compound exhibited 50-75% inhibition of calcium ion influx induced by capsaicin stimulation)
